In ChEMBL document CHEMBL5465560, “Selectivity Literature for EUbOPEN Chemogenomic Library” (2024) one finds % of inhibition, % of control and dTM data, which are given here for six compounds.

Test [1] deals with Myosin light chain kinase, smooth muscle (Homo sapiens, UniProt Q15746). As to the kind of experiment: Selectivity interaction (ActivX KiNativ screen (ex vivo kinase selectivity in human PBMCs)) EUB0001619a MYLK. The class given is cell-based. Particulars: PBMC, at 1 µM.
For test [2], the target named is T1, Mitogen-activated protein kinase kinase kinase kinase 3 (Homo sapiens) (UniProt Q8IVH8).
T1 sequence (whole entry): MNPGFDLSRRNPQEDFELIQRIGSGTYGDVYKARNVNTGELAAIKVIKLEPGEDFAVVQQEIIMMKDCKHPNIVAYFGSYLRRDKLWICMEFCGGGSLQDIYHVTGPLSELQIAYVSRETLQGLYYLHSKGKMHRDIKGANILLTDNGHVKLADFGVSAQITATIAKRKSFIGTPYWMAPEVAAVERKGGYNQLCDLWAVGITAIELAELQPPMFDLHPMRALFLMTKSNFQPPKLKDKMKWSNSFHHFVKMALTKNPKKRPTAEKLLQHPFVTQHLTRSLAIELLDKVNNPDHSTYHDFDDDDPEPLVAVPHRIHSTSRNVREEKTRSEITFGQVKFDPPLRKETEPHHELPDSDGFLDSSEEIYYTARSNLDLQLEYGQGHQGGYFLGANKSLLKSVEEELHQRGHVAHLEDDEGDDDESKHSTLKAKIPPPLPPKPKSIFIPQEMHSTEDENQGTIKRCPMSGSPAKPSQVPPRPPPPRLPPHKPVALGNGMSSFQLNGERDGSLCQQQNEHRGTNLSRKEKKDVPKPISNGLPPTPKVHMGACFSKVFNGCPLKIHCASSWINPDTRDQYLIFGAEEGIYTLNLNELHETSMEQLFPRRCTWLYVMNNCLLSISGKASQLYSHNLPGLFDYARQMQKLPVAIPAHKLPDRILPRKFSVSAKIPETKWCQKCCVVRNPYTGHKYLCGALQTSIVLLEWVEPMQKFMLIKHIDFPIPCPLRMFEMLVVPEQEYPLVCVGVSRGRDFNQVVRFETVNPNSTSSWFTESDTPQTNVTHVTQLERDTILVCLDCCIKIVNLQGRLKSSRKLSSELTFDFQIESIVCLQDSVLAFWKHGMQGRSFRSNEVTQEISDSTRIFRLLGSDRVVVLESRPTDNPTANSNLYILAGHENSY
Particulars: at 10 µM.

Test [3] addresses T2, Serine/threonine-protein kinase Nek5 (Homo sapiens) (UniProt Q6P3R8).
T2 sequence (whole entry): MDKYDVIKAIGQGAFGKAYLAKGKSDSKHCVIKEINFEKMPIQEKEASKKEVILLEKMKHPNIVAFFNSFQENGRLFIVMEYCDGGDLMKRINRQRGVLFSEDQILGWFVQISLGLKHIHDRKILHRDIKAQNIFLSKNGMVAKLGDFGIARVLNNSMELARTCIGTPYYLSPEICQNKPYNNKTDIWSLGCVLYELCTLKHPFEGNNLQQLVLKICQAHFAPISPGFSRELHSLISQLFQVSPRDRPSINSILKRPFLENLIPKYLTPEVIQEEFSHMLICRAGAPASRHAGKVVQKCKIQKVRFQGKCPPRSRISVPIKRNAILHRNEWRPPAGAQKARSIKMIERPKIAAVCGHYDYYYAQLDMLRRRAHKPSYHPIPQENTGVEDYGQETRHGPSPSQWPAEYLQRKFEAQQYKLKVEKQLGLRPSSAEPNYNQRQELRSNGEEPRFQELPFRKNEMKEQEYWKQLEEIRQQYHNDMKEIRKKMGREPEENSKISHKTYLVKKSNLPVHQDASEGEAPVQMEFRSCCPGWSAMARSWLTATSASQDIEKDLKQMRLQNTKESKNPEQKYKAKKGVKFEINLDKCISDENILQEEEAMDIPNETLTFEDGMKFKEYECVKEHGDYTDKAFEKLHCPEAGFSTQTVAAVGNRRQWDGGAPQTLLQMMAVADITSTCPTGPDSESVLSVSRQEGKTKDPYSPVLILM
The test can be described thus: Selectivity interaction (KinomeScan (DiscoverX)) EUB0001049a NEK5. As to conditions: at 1 µM.

For test [4], the target named is T3, Eukaryotic elongation factor 2 kinase (Homo sapiens) (UniProt O00418).
T3 sequence (whole entry): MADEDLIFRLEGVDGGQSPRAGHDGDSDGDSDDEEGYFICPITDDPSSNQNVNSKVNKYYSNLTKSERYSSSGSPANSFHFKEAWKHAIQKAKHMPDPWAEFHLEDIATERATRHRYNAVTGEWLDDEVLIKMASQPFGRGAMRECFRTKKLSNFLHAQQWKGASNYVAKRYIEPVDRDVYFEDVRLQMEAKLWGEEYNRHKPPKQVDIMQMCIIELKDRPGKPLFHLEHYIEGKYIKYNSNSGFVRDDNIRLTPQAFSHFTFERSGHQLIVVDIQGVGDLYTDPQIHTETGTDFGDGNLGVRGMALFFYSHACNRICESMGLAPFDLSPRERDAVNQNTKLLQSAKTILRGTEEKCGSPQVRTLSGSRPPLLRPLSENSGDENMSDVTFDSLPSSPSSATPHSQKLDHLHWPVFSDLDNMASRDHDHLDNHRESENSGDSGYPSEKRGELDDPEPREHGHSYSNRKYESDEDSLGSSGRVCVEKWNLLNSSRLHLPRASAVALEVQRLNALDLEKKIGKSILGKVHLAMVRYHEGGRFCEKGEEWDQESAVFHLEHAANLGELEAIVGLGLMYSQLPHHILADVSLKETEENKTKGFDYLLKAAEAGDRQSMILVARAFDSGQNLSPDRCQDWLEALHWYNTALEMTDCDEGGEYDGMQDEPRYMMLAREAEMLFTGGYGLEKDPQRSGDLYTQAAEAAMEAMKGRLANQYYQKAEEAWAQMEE
As to the kind of experiment: Selectivity interaction (ProQinase) EUB0000171b EEF2K.

The target of test [5] is Protein kinase C delta type (Homo sapiens) (UniProt Q05655). The test can be described thus: Selectivity interaction (KinomeScan (DiscoverX)) EUB0000092b PRKCD. Particulars: at 10 µM.
Test [6] concerns the target T4, Serine/threonine-protein kinase 3 (Homo sapiens) (UniProt Q13188).
T4 sequence (whole entry): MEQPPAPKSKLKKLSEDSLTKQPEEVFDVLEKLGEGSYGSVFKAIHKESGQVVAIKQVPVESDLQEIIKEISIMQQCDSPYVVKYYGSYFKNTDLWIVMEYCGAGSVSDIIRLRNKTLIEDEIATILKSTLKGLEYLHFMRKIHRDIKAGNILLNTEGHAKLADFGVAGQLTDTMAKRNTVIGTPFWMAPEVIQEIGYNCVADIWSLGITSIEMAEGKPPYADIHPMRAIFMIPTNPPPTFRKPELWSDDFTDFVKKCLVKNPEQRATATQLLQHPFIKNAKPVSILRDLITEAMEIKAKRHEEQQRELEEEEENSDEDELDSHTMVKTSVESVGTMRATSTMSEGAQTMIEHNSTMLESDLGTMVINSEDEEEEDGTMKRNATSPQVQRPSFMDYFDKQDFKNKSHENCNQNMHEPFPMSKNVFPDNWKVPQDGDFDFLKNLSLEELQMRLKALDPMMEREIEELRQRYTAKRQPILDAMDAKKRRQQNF
As to the kind of experiment: Selectivity interaction (Kinase panel (DSF assay)) EUB0001559a STK3.

Each structure is given as a SMILES string.

Sequence of Myosin light chain kinase, smooth muscle (Q15746 whole entry): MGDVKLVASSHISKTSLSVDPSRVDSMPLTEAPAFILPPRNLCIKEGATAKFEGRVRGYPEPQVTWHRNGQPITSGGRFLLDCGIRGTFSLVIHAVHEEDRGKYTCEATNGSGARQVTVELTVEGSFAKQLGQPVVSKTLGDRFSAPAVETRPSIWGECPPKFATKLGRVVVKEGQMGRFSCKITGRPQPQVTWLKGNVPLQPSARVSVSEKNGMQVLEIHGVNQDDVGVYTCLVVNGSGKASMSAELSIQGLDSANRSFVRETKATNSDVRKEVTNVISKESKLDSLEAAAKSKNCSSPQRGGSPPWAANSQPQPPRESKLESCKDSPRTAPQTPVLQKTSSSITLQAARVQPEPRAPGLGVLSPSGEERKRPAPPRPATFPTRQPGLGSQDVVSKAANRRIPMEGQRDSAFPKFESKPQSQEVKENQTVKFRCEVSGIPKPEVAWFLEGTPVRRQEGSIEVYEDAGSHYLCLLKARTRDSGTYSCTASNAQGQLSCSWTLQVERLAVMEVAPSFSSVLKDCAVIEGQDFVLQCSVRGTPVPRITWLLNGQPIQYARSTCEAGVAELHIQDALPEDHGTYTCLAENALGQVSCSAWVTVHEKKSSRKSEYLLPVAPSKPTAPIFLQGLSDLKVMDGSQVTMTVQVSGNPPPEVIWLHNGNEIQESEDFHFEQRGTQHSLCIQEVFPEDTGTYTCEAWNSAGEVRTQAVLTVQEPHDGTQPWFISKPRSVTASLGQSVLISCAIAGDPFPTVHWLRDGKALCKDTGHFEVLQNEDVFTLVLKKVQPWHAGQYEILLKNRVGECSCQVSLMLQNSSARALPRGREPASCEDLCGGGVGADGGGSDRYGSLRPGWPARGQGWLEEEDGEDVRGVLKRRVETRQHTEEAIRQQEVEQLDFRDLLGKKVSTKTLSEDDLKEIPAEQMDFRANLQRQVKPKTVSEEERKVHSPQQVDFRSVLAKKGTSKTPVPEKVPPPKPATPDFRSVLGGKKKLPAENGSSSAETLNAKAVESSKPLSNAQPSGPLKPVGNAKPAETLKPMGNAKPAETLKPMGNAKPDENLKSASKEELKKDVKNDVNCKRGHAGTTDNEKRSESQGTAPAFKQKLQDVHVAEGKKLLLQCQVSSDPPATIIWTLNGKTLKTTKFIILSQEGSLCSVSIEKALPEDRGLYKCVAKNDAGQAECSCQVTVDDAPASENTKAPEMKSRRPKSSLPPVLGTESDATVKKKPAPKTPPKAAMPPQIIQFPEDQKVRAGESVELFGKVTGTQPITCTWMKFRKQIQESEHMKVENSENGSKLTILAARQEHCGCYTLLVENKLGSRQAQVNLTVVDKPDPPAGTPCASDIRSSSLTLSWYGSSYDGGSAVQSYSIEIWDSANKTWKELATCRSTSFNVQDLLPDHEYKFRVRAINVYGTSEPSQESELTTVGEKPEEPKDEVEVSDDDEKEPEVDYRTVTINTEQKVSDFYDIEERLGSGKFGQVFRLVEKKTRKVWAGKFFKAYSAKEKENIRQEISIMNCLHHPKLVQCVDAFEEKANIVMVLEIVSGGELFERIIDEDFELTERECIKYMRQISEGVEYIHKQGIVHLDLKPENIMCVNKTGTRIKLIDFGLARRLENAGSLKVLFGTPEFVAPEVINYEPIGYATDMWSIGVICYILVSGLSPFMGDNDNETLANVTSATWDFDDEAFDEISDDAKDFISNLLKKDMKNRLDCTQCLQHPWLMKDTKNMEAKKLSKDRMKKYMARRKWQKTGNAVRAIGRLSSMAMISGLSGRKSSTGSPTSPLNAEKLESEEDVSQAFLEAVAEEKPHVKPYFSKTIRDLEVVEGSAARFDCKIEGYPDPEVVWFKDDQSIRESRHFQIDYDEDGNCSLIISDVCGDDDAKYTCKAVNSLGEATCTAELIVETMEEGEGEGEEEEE
Sequence of Protein kinase C delta type (Homo sapiens) (Q05655 whole entry, looked up): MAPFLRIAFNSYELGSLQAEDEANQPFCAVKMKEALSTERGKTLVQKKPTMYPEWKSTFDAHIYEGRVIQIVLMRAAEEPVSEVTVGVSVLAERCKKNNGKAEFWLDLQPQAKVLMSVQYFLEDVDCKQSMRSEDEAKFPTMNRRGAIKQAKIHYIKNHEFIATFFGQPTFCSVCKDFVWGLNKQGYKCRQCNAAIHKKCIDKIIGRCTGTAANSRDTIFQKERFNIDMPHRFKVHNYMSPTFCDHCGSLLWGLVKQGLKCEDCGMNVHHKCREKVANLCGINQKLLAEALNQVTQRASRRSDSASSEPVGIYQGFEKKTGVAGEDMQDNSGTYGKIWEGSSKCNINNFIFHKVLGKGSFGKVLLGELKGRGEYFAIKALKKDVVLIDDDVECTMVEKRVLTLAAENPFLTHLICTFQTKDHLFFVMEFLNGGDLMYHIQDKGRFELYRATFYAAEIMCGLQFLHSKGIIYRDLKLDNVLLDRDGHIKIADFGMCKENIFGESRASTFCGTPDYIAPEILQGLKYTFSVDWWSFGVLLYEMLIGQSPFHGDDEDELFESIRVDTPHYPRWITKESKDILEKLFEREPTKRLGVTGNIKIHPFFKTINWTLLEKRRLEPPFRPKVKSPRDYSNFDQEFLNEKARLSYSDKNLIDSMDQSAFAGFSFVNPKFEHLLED

In test [1], `N#Cc1cccc(-c2c[nH]c3ncnc(N4CCOCC4)c23)c1` came in with a % of inhibition of 16%. As for `CCN(CC)CCCCNc1ncc2cc(-c3cc(OC)cc(OC)c3)c(NC(=O)NC(C)(C)C)nc2n1`, the % of control in test [2] stood at 100%. Take `COc1cc(Nc2nc(C)cc(-c3cnn4nc(OC)ccc34)n2)cc(C(F)(F)F)c1`: in test [3], the % of control was 96%. Regarding `C=CC(=O)Nc1cccc(C(=O)Nc2ccc(Nc3cc(-c4[nH]c(SC)nc4C)ccn3)cc2)c1`, the % of control in test [4] (at 1 µM) worked out at 91%; in test [4] (at 5 µM) it was 92%.

Take `CCC(=O)N1CCN(c2ccc(-n3c(=O)ccc4cnc5ccc(-c6cnc7ccccc7c6)cc5c43)cc2C(F)(F)F)CC1`: the % of control in test [5] was found to be 82%. `CN(C(=O)c1cnn2cccnc12)c1cc2c(cc1N1CCOCC1)C(=O)N(C[C@@H](F)C(C)(C)O)C2`: the dTM in test [6] is 1.5 K.
